Experimental data reported in patent publication US8729053B2, “Nuclear factor kappa B pathway inhibitor composition and use of same” (The United States of America, as represented by the …, priority 2008, dated 2014).
Structures can show the parent of a compound that is named as a salt.

Key:
IKKβ = biological target: T1, IKKβ (Homo sapiens, UniProt O14920); assay: K-LISA IKKβ Inhibitor Screening Kit in vitro assay; assay type: biochemical; settings: 0.1 to 100 μM, incubated with ATP
T1 construct: purchased Calbiochem
T1 sequence (O14920 1-756): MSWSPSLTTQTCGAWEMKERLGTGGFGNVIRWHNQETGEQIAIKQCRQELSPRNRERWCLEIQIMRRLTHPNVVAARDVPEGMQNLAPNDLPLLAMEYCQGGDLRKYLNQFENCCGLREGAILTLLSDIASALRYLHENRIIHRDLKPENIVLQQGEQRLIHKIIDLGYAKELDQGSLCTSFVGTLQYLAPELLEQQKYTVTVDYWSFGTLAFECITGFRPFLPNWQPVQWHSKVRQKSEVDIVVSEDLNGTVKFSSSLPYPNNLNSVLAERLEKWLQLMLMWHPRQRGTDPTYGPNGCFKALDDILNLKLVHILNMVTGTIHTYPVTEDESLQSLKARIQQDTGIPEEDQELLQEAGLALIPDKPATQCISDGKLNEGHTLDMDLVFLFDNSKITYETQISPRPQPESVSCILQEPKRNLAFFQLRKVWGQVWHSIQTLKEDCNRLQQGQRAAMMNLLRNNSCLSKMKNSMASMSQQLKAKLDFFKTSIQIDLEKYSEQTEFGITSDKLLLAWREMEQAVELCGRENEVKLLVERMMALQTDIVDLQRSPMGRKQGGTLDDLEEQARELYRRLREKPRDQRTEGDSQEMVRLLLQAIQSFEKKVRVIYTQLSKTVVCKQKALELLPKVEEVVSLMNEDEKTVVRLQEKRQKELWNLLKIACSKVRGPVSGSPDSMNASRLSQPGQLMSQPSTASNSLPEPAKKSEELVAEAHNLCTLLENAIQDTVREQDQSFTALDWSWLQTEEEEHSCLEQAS
Method: In an attempt to determine whether compound I interferes with ATP binding to the catalytic site, the activity of compound I was measured with fully activated, phosphorylated IKKα or IKKβ. […] However, whether this compound interacts outside of the ATP binding pocket of IKK as an ATP non-competitive inhibitor similar to BMS-345541 is unknown. […] Luciferase activities with TPA induction alone were set at 100% and the relative activities with TPA in the presence of compounds are shown.

uPAR promoter = uPAR promoter luciferase reporter assay in HEK293 cells; assay type: cell-based, human; settings: TPA 10 ng/ml 18 hours
Method: All expression plasmids were transiently transfected into HEK293 cells in a 96-well plate (0.1 μg/well) by using Effectene transfection reagent (Qiagen, Valencia, Calif.) according to the manufacturer's manual. HEK293 cells were maintained in Dulbecco's modified Eagle medium (Sigma, St. Louis, Mo.) supplemented with 10% fetal bovine serum (Atlanta Biologicals, Lawrenceville, Ga.) and incubated at 37° C. in a 5% CO2 incubator. After 24 hrs incubation, the medium was changed to DMEM with 0.2% FBS, and the transfectants were exposed to various concentrations of compound I and TPA (10 ng/ml). Cells were lysed with passive lysis buffer and the luciferase assay was performed using the Firefly-Luciferase reporter assay system (Promega, Madison, Wis.) and MLX Luminometer (Dynex Technology, Chantilly, Va.).
Three different luciferase reporter genes, AP-1 reporter containing four times TRE consensus originated from GCN4 and SRE reporter purchased from Stratagene (La Jolla, Calif.) respectively are as described previously (Suzukawa et al., Environ. Health Perspect., 2002, 110, 865-70). […]
Inhibition of NFκB transactivation would be expected to result in suppressed expression of genes whose transcription depends on NFκB. Quantitative RT-PCR was used to measure endogenous levels of IL-6 mRNA, transcribed from a gene whose transcription depends on NFκB but not AP-1. […]

Cc1cc(N)ccc1N=Nc1ccc(S(=O)(=O)CCOS(=O)(=O)O)cc1 [compound I, 2-(4-((4-amino-2-methylphenyl)diazenyl)phenylsulfonyl)ethyl hydrogen sulfate]
Inhibition of phosphorylation of IκBα peptide substrate catalyzed by IKKβ (IKKβ): no inhibition
uPAR luciferase activity (uPAR promoter): dose-dependent inhibition
